Tests used:
[1] = molecular target: T1, recombinant human PMYT-1 (Myt1 kinase) (Homo sapiens, UniProt Q99640); experiment: LanthaScreen Europium (Eu) Kinase Binding Assay for Myt1 kinase; settings: TR-FRET tracer 178 displacement, GST-tagged full length PMYT-1, 60 min, room temperature; mean IC50; read-out: LANTHA Kinase Binding for PMyt1
T1 construct: full length PMYT-1 was expressed by baculovirus in insect cells using a N-terminal GST tag; purchased Invitrogen A30984; host or cells: insect cells (baculovirus)
T1 sequence (Q99640 1-499): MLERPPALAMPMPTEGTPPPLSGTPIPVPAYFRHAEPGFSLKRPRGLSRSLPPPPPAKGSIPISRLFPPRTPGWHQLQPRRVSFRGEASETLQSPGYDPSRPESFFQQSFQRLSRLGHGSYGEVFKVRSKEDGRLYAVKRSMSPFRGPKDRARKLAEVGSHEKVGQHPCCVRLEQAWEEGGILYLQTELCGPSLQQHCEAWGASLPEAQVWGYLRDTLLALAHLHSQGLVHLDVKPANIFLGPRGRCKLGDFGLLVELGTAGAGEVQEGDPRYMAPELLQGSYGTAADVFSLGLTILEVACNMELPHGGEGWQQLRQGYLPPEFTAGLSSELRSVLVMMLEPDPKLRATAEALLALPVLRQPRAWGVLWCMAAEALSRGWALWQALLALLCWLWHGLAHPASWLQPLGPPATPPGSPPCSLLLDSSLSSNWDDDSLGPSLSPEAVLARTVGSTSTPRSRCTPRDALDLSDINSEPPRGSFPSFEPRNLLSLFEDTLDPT
Excerpt: We used a LanthaScreen Europium (Eu) Kinase Binding Assay to determine the binding of provided compounds to Myt1 kinase. The assay utilizes an Alexa Fluor 647-labeled ATP competitive kinase tracer that binds to the ATP binding site of a GST-tagged Myt1 kinase, while a europium (Eu) labeled antibody binds to the GST tag. The proximity of fluorescently labeled kinase tracer and europium (Eu) donor fluorophore antibody leads to fluorescence resonance energy transfer (FRET) to the fluorescence label (acceptor) upon excitation of the Eu (donor). Displacement of tracer from the ATP-binding site by a test compound disturbs the proximity between both labels thus lowering the FRET.
This time resolved-FRET binding assay was performed in white 384-well low volume plates (Greiner, cat #784075), at room temperature in kinase buffer A (KBA; Invitrogen cat # PV3189), consisting of 50 mM HEPES-NaOH (pH 7.5), 0.01% Brij-35, 10 mM MgCl2, and 1 mM EGTA. 5 μl of compound (diluted in reaction buffer, to 1% DMSO) were added to various wells in the plate, followed by 5 μl each of recombinant human PMYT-1 (full length PMYT-1 was expressed by baculovirus in insect cells using a N-terminal GST tag (MW: 80.8 kDa) (Invitrogen cat #A30984) and LanthaScreen Eu-anti-GST antibody (Invitrogen, cat #PV5594). After this, 5 μl of kinase tracer 178 (Invitrogen, cat #PV5593) was added to the plate and the plate was incubated for 60 minutes at room temperature. The final assay conditions in each well were: 3 nM tracer 178, 2.5 nM PMYT-1 and 1 nM Eu-labeled antibody in total assay volume of 15 μl. An Envision 2104 (Perkin-Elmer) Plate Reader with the following time-resolve fluorescence setting was used for performing LanthaScreen kinase binding assay. • Excitation 320 nm (30 nm bandpass) • Kinase Tracer Emission 665 nm (10 nm bandpass) • LanthaScreen Eu-anti-Tag Antibody Emission 615 nm (10 nm bandpass) • Dichroic Mirror Instrument dependent • Delay Time 100 μs • Integration Time 200 μs
To calculate the emission ratio, the acceptor/tracer emission ([…]) was divided by the antibody/donor emission ([…]) and the average of duplicate measurement was used for calculations. Data plotting, analysis of binding, and curve fitting was done using Excel add-in XLfit version 5.5.0.5 (IDBS, Guildford, United Kingdom).

Myt1 Kinase = molecular target: T2, Myt1 Kinase (Homo sapiens, UniProt Q99640); experiment: AlphaLISA SureFire Ultra Human Phospho-CDK1 (Thr14) target engagement assay in DAOY cells; assay type: cell-based; settings: 4 h incubation, Cdk1 phosphorylated on threonine 14, read-out: TE Myt1 Kinase (AlphaLISA)
T2 construct: endogenous in cells; host or cells: DAOY medulloblastoma cells (ATCC)
T2 sequence (Q99640 1-499): T1 sequence (Q99640 1-499)
Protocol: The following cellular assay was used to determine the extent to which the compounds disclosed herein inhibit phosphorylation of CDK1 at Thr 14.
DAOY medulloblastoma cell line (ATCC) was cultured in Minimum Essential Medium Eagle supplemented with 10% fetal calf serum (Sigma), 1% Penicillin-Streptomycin and 10 mM HEPES buffer (HyClone). Cell cultures were kept in a humidified incubator at 37° C. and 5% CO2. Cells were routinely tested for Mycoplasma contamination.
For target engagement assessment, quantification of Cdk1 phosphorylated on threonine 14 was detected using the AlphaLISA® SureFire® Ultra™ Human Phospho-CDK1 (Thr14) assay (Perkin Elmer). DAOY cells were seeded into tissue culture 96-well plates (VWR) to a density of 10,000 cells per well. Twenty-four hours post-seeding cells were incubated for 4 h with test compounds at concentrations ranging from 7 to 5000 nM. Cells were washed with PBS and lysed in 50 μl AlphaLISA® lysis buffer before freezing at −80° C. Ten μl of the lysate was transferred to 384 well plates and incubated with AlphaLISA® donor and acceptor beads according to the manufacturer's instructions. Dose response curves and EC50 values were calculated and visualized using GraphPad Prism version 9.

IC50 [1]	EC50 (Myt1 Kinase)	SMILES
100 to 250 nM		Cc1ccc(O)cc1-n1nc(-c2ccc(F)cc2)c(C(N)=O)c1N [Compound 2, 5-amino-3-(4-fluorophenyl)-1-(5-hydroxy-2-methylphenyl)-1H-pyrazole-4-carboxamide]
> 250 nM		COc1ccc(-c2nn(-c3cc(O)ccc3C)c(N)c2C(N)=O)cc1 [Compound 3, 5-amino-1-(5-hydroxy-2-methylphenyl)-3-(4-methoxyphenyl)-1H-pyrazole-4-carboxamide]
10 to 100 nM	> 1000 nM	Cc1ccc(O)c(C)c1-n1nc(-c2cccc(F)c2)c(C(N)=O)c1N [Compound 61]
> 250 nM		Cc1ccc(O)c(C)c1-n1nc(-c2ccccc2Cl)c(C(N)=O)c1N [Compound 62]
10 to 100 nM	250 to 500 nM	Cc1ccc(O)c(C)c1-n1nc(-c2coc(Br)c2)c(C(N)=O)c1N [Compound 78, 5-amino-3-(5-bromo-3-furyl)-1-(3-hydroxy-2,6-xylyl)-4-pyrazolecarboxamide]
10 to 100 nM		Cc1ccc2[nH]nc(C)c2c1-n1nc(-c2ccco2)c(C(N)=O)c1N (single isomer, unassigned) [Compound 103, 5-amino-1-(3,5-dimethyl-1H-indazol-4-yl)-3-(furan-2-yl)-1H-pyrazole-4-carboxamide]
10 to 100 nM	> 1000 nM	NC(=O)c1c(-c2ccco2)nn(-c2c(Cl)ccc(O)c2Cl)c1N [Compound 91, 5-amino-1-(2,6-dichloro-3-hydroxyphenyl)-3-(2-furyl)-4-pyrazolecarboxamide]
100 to 250 nM		Cc1ccc(O)c(C)c1-n1nc(-c2cc(Br)co2)c(C(N)=O)c1N (single isomer, unassigned) [Compound 110, 5-amino-3-(4-bromofuran-2-yl)-1-(3-hydroxy-2,6-dimethylphenyl)-1H-pyrazole-4-carboxamide]
10 to 100 nM	> 1000 nM	Cc1ccc(O)c(C)c1-n1nc(-c2ccco2)c(C(N)=O)c1N (single isomer, unassigned) [Compound 105, 5-amino-3-(furan-2-yl)-1-(3-hydroxy-2,6-dimethylphenyl)-1H-pyrazole-4-carboxamide]
≤ 10 nM	500 to 1000 nM	Cc1ccc(O)c(C)c1-n1nc(-c2ncc[nH]2)c(C(N)=O)c1N [Compound 125]
10 to 100 nM	> 1000 nM	Cc1ccc2[nH]ncc2c1-n1nc(-c2ccco2)c(C(N)=O)c1N [Compound 84, 5-amino-3-(2-furyl)-1-(5-methyl-1H-indazol-4-yl)-4-pyrazolecarboxamide]
> 250 nM		Cc1ccc(O)cc1-n1nc(-c2cccc(-c3ccncc3)c2)c(C(N)=O)c1N [Compound 7, 5-amino-1-(5-hydroxy-2-methylphenyl)-3-[3-(pyridin-4-yl)phenyl]-1H-pyrazole-4-carboxamide]
> 250 nM		Cc1ccc(O)cc1-n1nc(-c2cccc(C3CCNCC3)c2)c(C(N)=O)c1N [Compound 8, 5-amino-1-(5-hydroxy-2-methylphenyl)-3-[3-(piperidin-4-yl)phenyl]-1H-pyrazole-4-carboxamide]

The next lines start with the compound.

SMILES	IC50 [1]	EC50 (Myt1 Kinase)
COc1ccccc1-c1nn(-c2c(C)ccc(O)c2C)c(N)c1C(N)=O [Compound 64]	> 250 nM	
NC(=O)c1c(-c2cc3ccccc3o2)nn(-c2c(Cl)ccc(O)c2Cl)c1N [Compound 93, 5-amino-3-(1-benzofuran-2-yl)-1-(2,6-dichloro-3-hydroxyphenyl)-4-pyrazolecarboxamide]	10 to 100 nM	500 to 1000 nM
Cc1ccc(O)cc1-n1nc(-c2ccccc2)c(C(N)=O)c1N [Compound 1, 5-amino-1-(5-hydroxy-2-methylphenyl)-3-phenyl-1H-pyrazole-4-carboxamide]	100 to 250 nM	500 to 1000 nM
Cc1ccc(O)c(C)c1-n1nc(-c2cnn(C)c2)c(C(N)=O)c1N [Compound 121]	10 to 100 nM	
Cc1ccoc1-c1nn(-c2c(C)ccc(O)c2C)c(N)c1C(N)=O [Compound 83, 5-amino-1-(3-hydroxy-2,6-xylyl)-3-(3-methyl-2-furyl)-4-pyrazolecarboxamide]	10 to 100 nM	> 1000 nM
Cc1ccc2[nH]ncc2c1-n1nc(-c2ccc(Br)o2)c(C(N)=O)c1N [Compound 85, 5-amino-3-(5-bromo-2-furyl)-1-(5-methyl-1H-indazol-4-yl)-4-pyrazolecarboxamide]	10 to 100 nM	> 1000 nM
Cc1ccc(O)cc1-n1nc(-c2ccc(Cl)cc2)c(C(N)=O)c1N [Compound 4, 5-amino-3-(4-chlorophenyl)-1-(5-hydroxy-2-methylphenyl)-1H-pyrazole-4-carboxamide]	100 to 250 nM	> 1000 nM
Cc1ccc(O)c(C)c1-n1nc(-c2nccn2C)c(C(N)=O)c1N [Compound 124]	10 to 100 nM	> 1000 nM
Cc1cccc(-c2nn(-c3c(C)ccc(O)c3C)c(N)c2C(N)=O)c1 [Compound 63]	10 to 100 nM	
Cc1ccc(O)c(C)c1-n1nc(-c2cc3ccccc3o2)c(C(N)=O)c1N (single isomer, unassigned) [Compound 109, 5-amino-3-(benzofuran-2-yl)-1-(3-hydroxy-2,6-dimethylphenyl)-1H-pyrazole-4-carboxamide]	> 250 nM	
Cc1ccc2[nH]nc(C)c2c1-n1nc(-c2ccco2)c(C(N)=O)c1N (atropisomer, axis not shown) [Compound 116, 5-amino-1-(3,5-dimethyl-1H-indazol-4-yl)-3-(furan-2-yl)-1H-pyrazole-4-carboxamide]	> 250 nM	
Cc1ccc(O)c(C)c1-n1nc(-c2ccccc2F)c(C(N)=O)c1N [Compound 65]	10 to 100 nM	
Cc1ccccc1-c1nn(-c2c(C)ccc(O)c2C)c(N)c1C(N)=O [Compound 66]	> 250 nM	
Cc1cc(-c2nn(-c3c(C)ccc(O)c3C)c(N)c2C(N)=O)oc1C [Compound 89, 5-amino-3-(4,5-dimethyl-2-furyl)-1-(3-hydroxy-2,6-xylyl)-4-pyrazolecarboxamide]	≤ 10 nM	250 to 500 nM
Cc1ccc(O)cc1-n1nc(-c2cccc(Br)c2)c(C(N)=O)c1N [Compound 6, 5-amino-3-(3-bromophenyl)-1-(5-hydroxy-2-methylphenyl)-1H-pyrazole-4-carboxamide]	> 250 nM	> 1000 nM
Cc1cc(Cl)c(O)c(C)c1-n1nc(-c2ccc(Br)o2)c(C(N)=O)c1N [Compound 74, 5-amino-3-(5-bromo-2-furyl)-1-(4-chloro-3-hydroxy-2,6-xylyl)-4-pyrazolecarboxamide]	10 to 100 nM	> 1000 nM
COc1ccc(S(=O)(=O)O)cc1-c1nn(-c2c(C)ccc(O)c2C)c(N)c1C(N)=O [Compound 60]	> 250 nM	

From patent US20260209208A1, “PHENYL-PYRAZOLE CARBOXAMIDE COMPOUNDS” (Acrivon Therapeutics, Inc., priority 2022, published 2026)
